The CheMixHub viscosity set

Assay: xn = mol fraction of the nth substance listed

BrC(Br)Br + CN(C)C=O
Conditions | viscosity [mPa·s]
298 K, 101.3 kPa, x1 = 0.1418 | 1.075
298 K, 101.3 kPa, x1 = 0.2704 | 1.355
298 K, 101.3 kPa, x1 = 0.463 | 1.794
298 K, 101.3 kPa, x1 = 0.6145 | 2.007
298 K, 101.3 kPa, x1 = 0.7144 | 2.037
298 K, 101.3 kPa, x1 = 0.818 | 2.016
298.15 K, 101 kPa, x1 = 0.1458 | 1.048
298.15 K, 101 kPa, x1 = 0.1971 | 1.237
298.15 K, 101 kPa, x1 = 0.2942 | 1.486
298.15 K, 101 kPa, x1 = 0.3961 | 1.703
298.15 K, 101 kPa, x1 = 0.4962 | 1.956
298.15 K, 101 kPa, x1 = 0.5972 | 2.102
298.15 K, 101 kPa, x1 = 0.6959 | 2.122
298.15 K, 101 kPa, x1 = 0.7985 | 2.147
298.15 K, 101 kPa, x1 = 0.8992 | 2.074
303.15 K, 101 kPa, x1 = 0.1458 | 0.9843
303.15 K, 101 kPa, x1 = 0.1971 | 1.162
303.15 K, 101 kPa, x1 = 0.2942 | 1.371
303.15 K, 101 kPa, x1 = 0.3961 | 1.567
303.15 K, 101 kPa, x1 = 0.4962 | 1.793
303.15 K, 101 kPa, x1 = 0.5972 | 1.927
303.15 K, 101 kPa, x1 = 0.6959 | 1.953
303.15 K, 101 kPa, x1 = 0.7985 | 1.966
303.15 K, 101 kPa, x1 = 0.8992 | 1.934
308.15 K, 101 kPa, x1 = 0.1458 | 0.9091
308.15 K, 101 kPa, x1 = 0.1971 | 1.066
308.15 K, 101 kPa, x1 = 0.2942 | 1.267
308.15 K, 101 kPa, x1 = 0.3961 | 1.443
308.15 K, 101 kPa, x1 = 0.4962 | 1.643
308.15 K, 101 kPa, x1 = 0.5972 | 1.765
308.15 K, 101 kPa, x1 = 0.6959 | 1.801
308.15 K, 101 kPa, x1 = 0.7985 | 1.839
308.15 K, 101 kPa, x1 = 0.8992 | 1.797
313.15 K, 101 kPa, x1 = 0.1458 | 0.8479
313.15 K, 101 kPa, x1 = 0.1971 | 1
313.15 K, 101 kPa, x1 = 0.2942 | 1.173
313.15 K, 101 kPa, x1 = 0.3961 | 1.329
313.15 K, 101 kPa, x1 = 0.4962 | 1.513
313.15 K, 101 kPa, x1 = 0.5972 | 1.622
313.15 K, 101 kPa, x1 = 0.6959 | 1.66
313.15 K, 101 kPa, x1 = 0.7985 | 1.705
313.15 K, 101 kPa, x1 = 0.8992 | 1.679
318 K, 101.33 kPa, x1 = 0.1317 | 0.819
318 K, 101.33 kPa, x1 = 0.2705 | 1.046
318 K, 101.33 kPa, x1 = 0.4636 | 1.313
318 K, 101.33 kPa, x1 = 0.6142 | 1.471
318 K, 101.33 kPa, x1 = 0.7204 | 1.518
318 K, 101.33 kPa, x1 = 0.8296 | 1.519

C=Cc1ccccc1 + CN(C)C=O
viscosity [mPa·s], 101.33 kPa
Conditions | x1 = 0.109 | x1 = 0.2013 | x1 = 0.2959 | x1 = 0.3998 | x1 = 0.5052 | x1 = 0.6012 | x1 = 0.6979 | x1 = 0.8049 | x1 = 0.8976
298.15 K | 0.831 | 0.845 | 0.854 | 0.858 | 0.86 | 0.856 | 0.847 | 0.825 | 0.794
303.15 K | 0.78 | 0.79 | 0.801 | 0.804 | 0.802 | 0.798 | 0.79 | 0.768 | 0.735
308.15 K | 0.732 | 0.742 | 0.749 | 0.75 | 0.749 | 0.746 | 0.739 | 0.717 | 0.685

CC(=O)c1ccc(Cl)cc1 + CN(C)c1ccccc1
viscosity [mPa·s], 101 kPa
Conditions | 303.15 K | 308.15 K
x2 = 0.0685 | 2.238 | 2.175
x2 = 0.1369 | 2.129 | 2.065
x2 = 0.2085 | 2.019 | 1.954
x2 = 0.2801 | 1.913 | 1.849
x2 = 0.3517 | 1.816 | 1.752
x2 = 0.4754 | 1.663 | 1.597
x2 = 0.551 | 1.576 | 1.511
x2 = 0.6023 | 1.53 | 1.46
x2 = 0.6538 | 1.478 | 1.409
x2 = 0.7316 | 1.404 | 1.335
x2 = 0.7852 | 1.355 | 1.288
x2 = 0.8376 | 1.307 | 1.243
x2 = 0.9175 | 1.24 | 1.177

CC(=O)c1ccc(Cl)cc1 + CNC(C)=O
308.15 K, 101 kPa
Conditions | viscosity [mPa·s]
x1 = 0.0644 | 3.273
x1 = 0.1311 | 3.223
x1 = 0.2036 | 3.141
x1 = 0.2825 | 3.035
x1 = 0.3696 | 2.906
x1 = 0.4664 | 2.765
x1 = 0.5774 | 2.604
x1 = 0.7003 | 2.452
x1 = 0.8405 | 2.331

CCCCCCCCO + CO
viscosity [mPa·s], 101 kPa
Conditions | 298.15 K | 308.15 K | 318.15 K
x2 = 0.05 | 6.856 | 4.941 | 3.665
x2 = 0.1 | 6.367 | 4.633 | 3.463
x2 = 0.15 | 5.895 | 4.331 | 3.263
x2 = 0.2 | 5.44 | 4.035 | 3.065
x2 = 0.25 | 5.002 | 3.746 | 2.87
x2 = 0.3 | 4.581 | 3.464 | 2.676
x2 = 0.35 | 4.176 | 3.189 | 2.485
x2 = 0.4 | 3.789 | 2.921 | 2.296
x2 = 0.45 | 3.418 | 2.661 | 2.11
x2 = 0.5 | 3.064 | 2.41 | 1.927
x2 = 0.55 | 2.727 | 2.166 | 1.748
x2 = 0.6 | 2.408 | 1.933 | 1.573
x2 = 0.65 | 2.106 | 1.708 | 1.403
x2 = 0.7 | 1.823 | 1.495 | 1.239
x2 = 0.75 | 1.559 | 1.292 | 1.081
x2 = 0.8 | 1.314 | 1.101 | 0.9299
x2 = 0.85 | 1.089 | 0.9227 | 0.787
x2 = 0.9 | 0.8845 | 0.7578 | 0.6532
x2 = 0.95 | 0.7018 | 0.6071 | 0.5296
